In ChEMBL document CHEMBL1828525, “Metronidazole acid acyl sulfonamide: a novel class of anticancer agents and potential EGFR tyrosine kinase inhibitors” (Bioorg Med Chem, 2011):
Converted amounts (≈) assume the structure as drawn.

Legend:
[1] = target: Receptor tyrosine-protein kinase erbB-2 (Homo sapiens, UniProt P04626);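 further: recombinant His6-tagged human HER-2, autophosphorylation inhibition read by DELFIA time-resolved fluorescence after 10 min preincubation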
Description: Inhibition of human recombinant (His)6-tagged HER-2 autophosphorylation pre-incubated for 10 mins by DELFIA/Time-resolved fluorimetry

A549 = experiment: Antiproliferative activity against human A549 cells after 48 hrs by MTT assay; type: functional, cell-based; settings: A549, 48 h
B16-F10 = experiment: Antiproliferative activity against mouse B16-F10 cells after 48 hrs by MTT assay; type: functional, cell-based; settings: B16-F10, 48 h
[2] = target: Epidermal growth factor receptor (Homo sapiens, UniProt P00533);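 further: recombinant His6-tagged EGFR autophosphorylation, read by DELFIA time-resolved fluorimetry after a 10 min preincubation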
Chain of Epidermal growth factor receptor (P00533 whole entry): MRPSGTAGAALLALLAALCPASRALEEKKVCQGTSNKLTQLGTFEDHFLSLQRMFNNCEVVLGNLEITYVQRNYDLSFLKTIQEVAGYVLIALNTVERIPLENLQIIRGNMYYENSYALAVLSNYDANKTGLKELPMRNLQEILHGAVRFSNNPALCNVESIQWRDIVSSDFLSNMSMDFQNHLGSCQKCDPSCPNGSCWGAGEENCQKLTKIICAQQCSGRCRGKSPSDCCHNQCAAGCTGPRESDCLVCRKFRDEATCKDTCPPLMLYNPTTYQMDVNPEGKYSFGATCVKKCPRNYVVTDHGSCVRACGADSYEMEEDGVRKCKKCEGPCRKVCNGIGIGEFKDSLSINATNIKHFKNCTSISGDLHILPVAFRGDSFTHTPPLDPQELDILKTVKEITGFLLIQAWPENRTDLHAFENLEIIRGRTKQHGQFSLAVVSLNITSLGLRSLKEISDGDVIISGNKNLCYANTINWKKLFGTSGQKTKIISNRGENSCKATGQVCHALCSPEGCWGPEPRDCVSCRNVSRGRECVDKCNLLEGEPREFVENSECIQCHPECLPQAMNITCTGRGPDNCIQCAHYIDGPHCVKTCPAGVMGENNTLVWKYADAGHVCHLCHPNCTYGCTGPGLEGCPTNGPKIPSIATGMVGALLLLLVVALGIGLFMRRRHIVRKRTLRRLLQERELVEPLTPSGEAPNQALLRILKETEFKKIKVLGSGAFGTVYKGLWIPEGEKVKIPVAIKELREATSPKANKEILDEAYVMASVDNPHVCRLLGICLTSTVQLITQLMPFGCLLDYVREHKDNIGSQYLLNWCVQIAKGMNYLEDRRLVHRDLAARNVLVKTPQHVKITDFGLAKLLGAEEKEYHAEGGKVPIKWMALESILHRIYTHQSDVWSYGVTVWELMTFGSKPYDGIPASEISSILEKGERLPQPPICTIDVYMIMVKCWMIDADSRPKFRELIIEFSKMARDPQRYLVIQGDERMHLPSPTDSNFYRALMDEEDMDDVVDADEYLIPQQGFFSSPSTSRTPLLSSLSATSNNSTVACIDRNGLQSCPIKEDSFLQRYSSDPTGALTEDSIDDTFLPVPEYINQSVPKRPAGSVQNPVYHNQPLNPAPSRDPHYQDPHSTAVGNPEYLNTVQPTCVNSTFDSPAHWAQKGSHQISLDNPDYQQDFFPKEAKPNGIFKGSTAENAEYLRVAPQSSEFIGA
Description: Inhibition of human recombinant (His)6-tagged EGFR autophosphorylation pre-incubated for 10 mins by DELFIA/Time-resolved fluorimetry

Chain of Receptor tyrosine-protein kinase erbB-2 (P04626 whole entry): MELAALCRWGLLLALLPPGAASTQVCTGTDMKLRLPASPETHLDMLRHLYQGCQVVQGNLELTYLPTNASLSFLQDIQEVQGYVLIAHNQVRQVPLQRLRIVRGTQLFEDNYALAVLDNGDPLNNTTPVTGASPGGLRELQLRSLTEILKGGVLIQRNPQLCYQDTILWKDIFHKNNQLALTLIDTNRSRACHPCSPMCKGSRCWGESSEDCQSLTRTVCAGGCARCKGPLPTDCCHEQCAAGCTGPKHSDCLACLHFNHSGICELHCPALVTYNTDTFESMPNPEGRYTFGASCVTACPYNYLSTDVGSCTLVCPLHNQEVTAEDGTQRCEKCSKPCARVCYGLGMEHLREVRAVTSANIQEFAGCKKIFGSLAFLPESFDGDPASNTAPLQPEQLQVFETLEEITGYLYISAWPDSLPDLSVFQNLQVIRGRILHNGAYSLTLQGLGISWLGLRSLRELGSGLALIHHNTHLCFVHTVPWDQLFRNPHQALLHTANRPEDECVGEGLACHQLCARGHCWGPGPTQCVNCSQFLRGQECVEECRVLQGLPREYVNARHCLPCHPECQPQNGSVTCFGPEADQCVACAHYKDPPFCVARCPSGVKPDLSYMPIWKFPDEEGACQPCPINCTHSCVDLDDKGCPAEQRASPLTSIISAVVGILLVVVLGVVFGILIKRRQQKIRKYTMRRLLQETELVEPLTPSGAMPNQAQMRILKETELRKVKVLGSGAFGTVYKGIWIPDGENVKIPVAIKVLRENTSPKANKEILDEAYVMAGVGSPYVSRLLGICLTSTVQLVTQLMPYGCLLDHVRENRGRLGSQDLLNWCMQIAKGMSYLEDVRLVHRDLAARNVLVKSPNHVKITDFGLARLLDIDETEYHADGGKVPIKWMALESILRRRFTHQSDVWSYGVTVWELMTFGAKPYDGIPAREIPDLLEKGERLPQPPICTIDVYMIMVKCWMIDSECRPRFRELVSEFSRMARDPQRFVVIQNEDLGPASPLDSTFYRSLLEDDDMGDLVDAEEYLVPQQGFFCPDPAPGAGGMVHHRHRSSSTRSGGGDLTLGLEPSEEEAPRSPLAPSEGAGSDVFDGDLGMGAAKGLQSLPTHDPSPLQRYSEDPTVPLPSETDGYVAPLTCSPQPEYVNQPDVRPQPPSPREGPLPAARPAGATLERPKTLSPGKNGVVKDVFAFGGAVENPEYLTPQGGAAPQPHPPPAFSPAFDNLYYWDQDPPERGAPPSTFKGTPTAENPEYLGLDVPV

Structure (SMILES) | IC50 [1] [µM] | IC50 (A549) [µg/mL] | IC50 (B16-F10) [µg/mL] | IC50 [2] [µM]
Cc1ccc(S(=O)(=O)NC(=O)Cc2ccc(F)cc2)cc1 | 10.5 | 12 (≈ 39.2 µM) | 9.94 (≈ 32.3 µM) | 8.28
O=C(Cc1ccc(Cl)cc1)NS(=O)(=O)c1ccc(F)cc1 | 11.1 | – | – | 9.59
O=C(Cc1ccc(Cl)cc1)NS(=O)(=O)c1ccc(Cl)cc1 | 13.3 | – | – | 10.3
COc1ccc(CC(=O)NS(=O)(=O)c2ccc(F)cc2)cc1 | 23.4 | – | – | 21.8
O=C(Cc1ccc(Cl)cc1)NS(=O)(=O)c1ccccc1 | 13.1 | – | – | 11.9
Cc1ccc(S(=O)(=O)NC(=O)Cn2c([N+](=O)[O-])cnc2C)cc1 | 4.76 | 4.38 (≈ 12.9 µM) | 3.55 (≈ 10.5 µM) | 3.43
Cc1ccc(S(=O)(=O)NC(=O)Cc2ccc(Br)cc2)cc1 | 20.3 | – | – | 18.4
COc1ccc(CC(=O)NS(=O)(=O)c2ccc(Br)cc2)cc1 | 25 | – | – | 24.2
O=C(Cc1ccc(F)cc1)NS(=O)(=O)c1ccc(F)cc1 | 7.02 | 5.64 (≈ 18.1 µM) | 4.23 (≈ 13.6 µM) | 5.17
Cc1ncc([N+](=O)[O-])n1CC(=O)NS(=O)(=O)c1ccccc1 | 4.21 | – | – | –
O=C(Cc1cccc(Br)c1)NS(=O)(=O)c1ccc(Br)cc1 | 27.4 | – | – | 24.3
Cc1ncc([N+](=O)[O-])n1CC(=O)NS(=O)(=O)c1ccc(F)cc1 | 1.53 | 1.26 (≈ 3.68 µM) | 0.35 (≈ 1.02 µM) | 0.39
COc1ccc(CC(=O)NS(=O)(=O)c2ccc(Cl)cc2)cc1 | 37.9 | – | – | 32.9
O=C(Cc1ccc(F)cc1)NS(=O)(=O)c1ccc(Br)cc1 | 8.18 | 7.94 (≈ 21.3 µM) | 8.2 (≈ 22 µM) | 6.41
O=C(Cc1cccc(Br)c1)NS(=O)(=O)c1ccc(F)cc1 | 20.4 | – | – | 18.7
O=C(Cc1cccc(Br)c1)NS(=O)(=O)c1ccc(Cl)cc1 | 23.5 | – | – | 21.3
O=C(Cc1ccc(Br)cc1)NS(=O)(=O)c1ccc(Cl)cc1 | 18.9 | – | – | 15.9
COc1ccc(CC(=O)NS(=O)(=O)c2ccc(C)cc2)cc1 | > 50 | – | – | 38.5
Cc1ncc([N+](=O)[O-])n1CC(=O)NS(=O)(=O)c1ccc(Cl)cc1 | 3.41 | 2.47 (≈ 6.88 µM) | 0.92 (≈ 2.56 µM) | 1.51
Cc1ncc([N+](=O)[O-])n1CC(=O)NS(=O)(=O)c1ccc(Br)cc1 | 3.59 | 3.03 (≈ 7.51 µM) | 2.37 (≈ 5.88 µM) | 2.17
O=C(Cc1ccc(F)cc1)NS(=O)(=O)c1ccc(Cl)cc1 | 7.56 | 6.28 (≈ 19.2 µM) | 6.36 (≈ 19.4 µM) | 5.93
Cc1ccc(S(=O)(=O)NC(=O)Cc2cccc(Br)c2)cc1 | 27.9 | – | – | 26.2
O=C(Cc1ccc(Br)cc1)NS(=O)(=O)c1ccccc1 | 19 | – | – | 17.8
O=C(Cc1ccc(Cl)cc1)NS(=O)(=O)c1ccc(Br)cc1 | 13.6 | – | – | 11.3
O=C(Cc1cccc(Br)c1)NS(=O)(=O)c1ccccc1 | 26.3 | – | – | 24.7
O=C(Cc1ccc(Br)cc1)NS(=O)(=O)c1ccc(F)cc1 | 16.3 | – | – | 14.5
O=C(Cc1ccc(Br)cc1)NS(=O)(=O)c1ccc(Br)cc1 | 19.8 | – | – | –
COc1ccc(CC(=O)NS(=O)(=O)c2ccccc2)cc1 | 29.1 | – | – | 26.2
O=C(Cc1ccc(F)cc1)NS(=O)(=O)c1ccccc1 | 8.41 | 10.1 (≈ 34.5 µM) | 9.07 (≈ 30.9 µM) | 6.74
Cc1ccc(S(=O)(=O)NC(=O)Cc2ccc(Cl)cc2)cc1 | 15.6 | – | – | 13.7
